Assay results taken from the supplement of paper PMC10307832.

How the values were obtained:
Assay in all cases: relative viability (nuclei count vs DMSO), 5 days (fraction); higher = more cells survive
EPLC-272H = system: EPLC-272H
In short: (§1)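 Dosing by pin tool came one day after lung cancer cell lines were seeded in 1536-well plates, using either one drug or a fixed anchor-drug dose plus five library-drug doses (not always all listed) in √10 steps. After 5 days, nuclei were counted on 4× images. Relative viability is treated-well nuclei count divided by vehicle-well nuclei count, and values are medians of duplicate plates.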

NCI-H358 = system: NCI-H358
In short: as §1

NCI-H2087 = system: NCI-H2087
In short: as §1

HCC-827 = system: HCC-827
In short: as §1

NCI-H1792 = system: NCI-H1792
In short: as §1

NCI-H1650 = system: NCI-H1650
In short: as §1

LOU-NH91 = system: LOU-NH91
In short: as §1

LU99A = system: LU99A
In short: as §1

LK-2 = system: LK-2
In short: as §1

NCI-H1563 = system: NCI-H1563
In short: as §1

NCI-H522 = system: NCI-H522
In short: as §1

NCI-H2126 = system: NCI-H2126
In short: as §1

EKVX = system: EKVX
In short: as §1

COR-L 105 = system: COR-L 105
In short: as §1

BEN = system: BEN
In short: as §1

SW 900 = system: SW 900
In short: as §1

LCLC-97TM1 = system: LCLC-97TM1
In short: as §1

SK-MES-1 = system: SK-MES-1
In short: as §1

SW 1573 = system: SW 1573
In short: as §1

EMC-BAC-2 = system: EMC-BAC-2
In short: as §1

HCC-78 = system: HCC-78
In short: as §1

COCC1(CO)C(=O)C2CCN1CC2 (stereo not drawn) [PRIMA-1MET] + Nc1nc2[nH]cc(CCc3ccc(C(=O)N[C@@H](CCC(=O)O)C(=O)O)cc3)c2c(=O)[nH]1 [Pemetrexed] (partner 0.2 µM)
relative viability (EPLC-272H; first compound 0.2 µM): 0.35
relative viability (EPLC-272H; first compound 0.6325 µM): 0.403
relative viability (EPLC-272H; first compound 2 µM): 0.314
relative viability (EPLC-272H; first compound 6.325 µM): 0.317
relative viability (EPLC-272H; first compound 20 µM): 0.138
relative viability (NCI-H358; first compound 0.2 µM): 0.175
relative viability (NCI-H358; first compound 0.6325 µM): 0.159
relative viability (NCI-H358; first compound 2 µM): 0.165
relative viability (NCI-H358; first compound 6.325 µM): 0.164
relative viability (NCI-H358; first compound 20 µM): 0.198
relative viability (NCI-H2087; first compound 0.6325 µM): 0.639
relative viability (NCI-H2087; first compound 2 µM): 0.68
relative viability (NCI-H2087; first compound 6.325 µM): 0.61
relative viability (NCI-H2087; first compound 20 µM): 0.563
relative viability (HCC-827; first compound 0.2 µM): 0.221
relative viability (HCC-827; first compound 0.6325 µM): 0.144
relative viability (HCC-827; first compound 2 µM): 0.239
relative viability (HCC-827; first compound 6.325 µM): 0.554
relative viability (HCC-827; first compound 20 µM): 0.275
relative viability (NCI-H1792; first compound 0.2 µM): 0.713
relative viability (NCI-H1792; first compound 6.325 µM): 0.947
relative viability (NCI-H1792; first compound 20 µM): 0.676
relative viability (NCI-H1650; first compound 0.2 µM): 0.407
relative viability (NCI-H1650; first compound 0.6325 µM): 0.306
relative viability (NCI-H1650; first compound 2 µM): 0.399
relative viability (NCI-H1650; first compound 6.325 µM): 0.374
relative viability (NCI-H1650; first compound 20 µM): 0.304
relative viability (LOU-NH91; first compound 0.2 µM): 0.356
relative viability (LOU-NH91; first compound 0.6325 µM): 0.367
relative viability (LOU-NH91; first compound 2 µM): 0.405
relative viability (LOU-NH91; first compound 6.325 µM): 0.4
relative viability (LOU-NH91; first compound 20 µM): 0.344
relative viability (LU99A; first compound 0.2 µM): 0.191
relative viability (LU99A; first compound 0.6325 µM): 0.161
relative viability (LU99A; first compound 2 µM): 0.201
relative viability (LU99A; first compound 6.325 µM): 0.179
relative viability (LU99A; first compound 20 µM): 0.187
relative viability (LK-2; first compound 0.2 µM): 0.271
relative viability (LK-2; first compound 0.6325 µM): 0.0831
relative viability (LK-2; first compound 2 µM): 0.221
relative viability (LK-2; first compound 6.325 µM): 0.125
relative viability (LK-2; first compound 20 µM): 0.0594
relative viability (NCI-H1563; first compound 0.2 µM): 0.882
relative viability (NCI-H1563; first compound 0.6325 µM): 0.935
relative viability (NCI-H1563; first compound 6.325 µM): 0.77
relative viability (NCI-H1563; first compound 20 µM): 0.887
relative viability (NCI-H522; first compound 0.2 µM): 0.789
relative viability (NCI-H522; first compound 0.6325 µM): 0.927
relative viability (NCI-H522; first compound 2 µM): 1.01
relative viability (NCI-H522; first compound 6.325 µM): 0.946
relative viability (NCI-H522; first compound 20 µM): 0.423
relative viability (NCI-H2126; first compound 0.2 µM): 0.657
relative viability (NCI-H2126; first compound 0.6325 µM): 0.614
relative viability (NCI-H2126; first compound 2 µM): 0.609
relative viability (NCI-H2126; first compound 6.325 µM): 0.699
relative viability (NCI-H2126; first compound 20 µM): 0.67
relative viability (EKVX; first compound 0.2 µM): 0.448
relative viability (EKVX; first compound 2 µM): 0.385
relative viability (EKVX; first compound 6.325 µM): 0.447
relative viability (EKVX; first compound 20 µM): 0.385
relative viability (COR-L 105; first compound 0.2 µM): 1.3
relative viability (COR-L 105; first compound 0.6325 µM): 1.17
relative viability (COR-L 105; first compound 2 µM): 1.22
relative viability (COR-L 105; first compound 6.325 µM): 1.1
relative viability (COR-L 105; first compound 20 µM): 0.229
relative viability (BEN; first compound 0.2 µM): 0.898
relative viability (BEN; first compound 0.6325 µM): 0.421
relative viability (BEN; first compound 6.325 µM): 0.801
relative viability (BEN; first compound 20 µM): 0.834
relative viability (SW 900; first compound 0.2 µM): 0.522
relative viability (SW 900; first compound 0.6325 µM): 0.282
relative viability (SW 900; first compound 6.325 µM): 0.455
relative viability (SW 900; first compound 20 µM): 0.0805
relative viability (LCLC-97TM1; first compound 0.2 µM): 0.193
relative viability (LCLC-97TM1; first compound 0.6325 µM): 0.198
relative viability (LCLC-97TM1; first compound 2 µM): 0.182
relative viability (LCLC-97TM1; first compound 6.325 µM): 0.197
relative viability (LCLC-97TM1; first compound 20 µM): 0.21
relative viability (SK-MES-1; first compound 0.2 µM): 1.08
relative viability (SK-MES-1; first compound 0.6325 µM): 0.896
relative viability (SK-MES-1; first compound 2 µM): 0.901
relative viability (SK-MES-1; first compound 6.325 µM): 0.92
relative viability (SK-MES-1; first compound 20 µM): 0.929
relative viability (SW 1573; first compound 0.2 µM): 0.882
relative viability (SW 1573; first compound 0.6325 µM): 0.89
relative viability (SW 1573; first compound 2 µM): 0.752
relative viability (SW 1573; first compound 6.325 µM): 0.0377
relative viability (SW 1573; first compound 20 µM): 0.0278
relative viability (EMC-BAC-2; first compound 0.2 µM): 0.549
relative viability (EMC-BAC-2; first compound 0.6325 µM): 0.44
relative viability (EMC-BAC-2; first compound 2 µM): 0.422
relative viability (EMC-BAC-2; first compound 6.325 µM): 0.459
relative viability (EMC-BAC-2; first compound 20 µM): 0.473
relative viability (HCC-78; first compound 0.2 µM): 0.916
relative viability (HCC-78; first compound 0.6325 µM): 0.886
relative viability (HCC-78; first compound 2 µM): 0.914
relative viability (HCC-78; first compound 6.325 µM): 0.832
relative viability (HCC-78; first compound 20 µM): 0.864
